Results published in US5284871A, “Oxygen removal” (priority 1990, dated 1994).

Legend:
Pseudomonas fluorescens = experiment: Growth of Pseudomonas fluorescens in nutrient broth with and without sodium ascorbate and metals; assay type: cell-based; settings: 25° C.; for Growth of Pseudomonas fluorescens in nutrient broth: sodium ascorbate 0.2%, metal 88 μM; for effect on the growth of Pseudomonas fluorescens: nutrient broth
Procedure: (§1) To determine the antimicrobial effects of Oxysorb, 10 ml of broth in 16×100 screw-capped tubes were inoculated with diluted, overnight cultures to achieve an initial population of 100 to 1000 cells/ml. Nutrient broth was used for E. coli and Pseudomonas fluorescens; fluid thioglycollate medium was used for Clostridium sporogenes. Following inoculation, sodium ascorbate was added at a level of 0.2%, then 88 μM metal salt (copper gluconate, cobalt chloride, or ferric chloride). Ascorbate, copper, cobalt, and iron solutions were prepared and filter sterilized just prior to use. Tubes were incubated at 25° C. with caps tightened, unless they were placed in anaerobic (Gas Pak) jars. Anaerobically incubated tubes had loose caps to allow for generation of an anaerobic environment in the tube headspace. Samples from two individual tubes were plated periodically.

E. coli = experiment: Growth of E. coli in nutrient broth with and without sodium ascorbate and metals; assay type: cell-based; parameters: Growth of E. coli in nutrient broth: unit not given here; settings: 25° C.; for Growth of E. coli in nutrient broth: sodium ascorbate 0.2%, metal 88 μM
Procedure: as §1

[1] = Dissolved oxygen consumption measured with a Clark oxygen electrode; assay type: physicochemical; settings: for oxygen utilization by one component alone / effect of protein on the rate of oxygen removal by Oxysorb: pH 7.4; for effect of chelating agent on oxygen removal by Oxysorb: 1 mM chelating agent, 100 μM copper gluconate, 10 mM sodium ascorbate; for reducing agent in copper-mediated oxygen removal: 1 mM reducing agent, 100 micromolar copper gluconate; for effect of protein on the rate of oxygen removal by Oxysorb: 0.2% ascorbic acid, 40 ppm copper gluconate, with and without 2 mM glycine
Procedure: The oxygen tension was measured in 1 mM sodium ascorbate and 50 mM Tris, pH 7.4 at 25° C. using a Clark oxygen electrode.
Initial rates were measured in 50 micromolar copper sulfate, 1 mM sodium ascorbate, and 50 mM Tris, pH 7.4, at 25° C.
The initial rates were determined in 50 micromolar copper sulfate, 1 mM sodium ascorbate, and 50 mM Tris, pH 7.4 at 10° C., 15° C., 20° C., 25° C., 30° C., 35° C., and 40° C.
The rate of O2 consumption at 25° C. in 10 mM sodium ascorbate, 100 micromolar copper gluconate, 50 mM Tris, pH 7.4, and 1 mM chelating agent was monitored using a Clark electrode.
The rate of O2 consumption at 25° C. in 10 mM sodium ascorbate, 50 mM Tris, pH 7.4, and 100 micromolar transition metal was monitored using a Clark electrode.
The rate of O2 consumption at 25° C. in 100 micromolar copper gluconate, 50 mM Tris, pH 7.4, and 1 mM reducing agent was monitored using a Clark electrode.
Increasing amounts of ovalbumin in the absence and presence of glycine were added to the Oxysorb system and the rate of O2 consumption at 25° C. was monitored using a Clark electrode.
The chelating agents used for this experiment were glycine, L-histidine, phytic acid, and EDTA. Purified water and Tris were dispensed into the vial, and then 1 mM chelating agent and 100 μM copper gluconate were added. Upon stabilization of the oxygen electrode, the ascorbic acid was introduced and the reaction quickly took place.
Another experiment was designed to substitute a variety of transition metals and reducing agents in place of copper and ascorbate. The transition metals were ferric chloride, manganese sulfate, cobalt chloride, and chromium chloride. The final concentration of these metals was 100 micromolar in 10 mM ascorbic acid and 50 mM Tris buffer, pH 7.4. To start the reaction, the metal was added to these solution, and the removal of dissolved oxygen was monitored using a Clark electrode.
The reducing agents substituted for ascorbic acid were sodium sulfite, cysteine, and catechol. The order of addition was purified water, Tris, and 1 mM reducing agent. When the electrode stabilized, the copper gluconate was added.
Experiments were conducted to determine the effect of protein on the reaction of the Oxysorb system. Using a Clark electrode, the oxygen consumption was measured in solutions containing 50 mM Tris, pH 7.4, 0.2% ascorbic acid, 40 ppm copper gluconate, variable amounts of ovalbumin, with and without 2 mM glycine. The order of addition was water, Tris, glycine, copper gluconate, ovalbumin, and ascorbic acid.

[2] = system: microorganisms in potato water; experiment: Microbiological evaluation of potato water; settings: room temperature
Procedure: Another experiment was conducted to determined if the system of the present invention could delay or prevent textural degradation of potatoes stored in water. Raw potatoes were peeled, cubed, and immersed in water and in solutions of 40 ppm copper gluconate and 0.1% or 0.5% ascorbic acid. The samples were kept in uncovered glass mason jars at room temperature.

[3] = system: polyphenol oxidase activity in potatoes; experiment: Browning of pureed potato; settings: refrigerated, seven days
Description: A control of water and potato was pureed in a blender and placed into a screw top jar, filled to overflowing to minimize headspace. The same was done to a sample of potato and 40 ppm copper gluconate and 0.1% ascorbic acid in water. The jars were refrigerated and inverted frequently to disperse any foam formed.

[4] = Oxidation of ascorbic acid to dehydroascorbic acid, monitored spectrophotometrically; assay type: physicochemical; settings: 50 micromolar ascorbic acid, 1 micromolar Cu^2+, pH 7.4, 25° C.; 1000 U/ml catalase, 25 U/ml SOD
Procedure: The rate of oxidation at 25° C. in 50 mM Tris, pH 7.4, was monitored spectrophotometrically. […] The rate of oxidation at 25° C. in 50 mM Tris, pH 7.4, was monitored spectrophotometrically. […] Both reactions were carried out at 25° C. in 50 mM Tris, pH 7.4.

yeast = experiment: Yeast growth at 25° C. with the oxygen scavenging system; assay type: cell-based; settings: 4-day period, 0.004% copper gluconate, 0.2% sodium ascorbate
[5] = anaerobic incubation (Gas Pak jar)

## O=C1O[C@H]([C@@H](O)CO)C([O-])=C1O.[Na+] [Ascorbate, sodium ascorbate]
Pseudomonas fluorescens; Time 0 days
  Growth of Pseudomonas fluorescens in nutrient broth: 160
Pseudomonas fluorescens; Time 0.25 days
  Growth of Pseudomonas fluorescens in nutrient broth: 170
Pseudomonas fluorescens; Time 1 day
  Growth of Pseudomonas fluorescens in nutrient broth: 4.7 × 10^7
Pseudomonas fluorescens; Time 4 days
  Growth of Pseudomonas fluorescens in nutrient broth: 7.2 × 10^8
Pseudomonas fluorescens; Time 6 days
  Growth of Pseudomonas fluorescens in nutrient broth: 2.7 × 10^8
E. coli; Time 0 days
  Growth of E. coli in nutrient broth: 350
E. coli; Time 0.25 days
  Growth of E. coli in nutrient broth: 4600
E. coli; Time 1 day
  Growth of E. coli in nutrient broth: 1.6 × 10^8
E. coli; Time 2 days
  Growth of E. coli in nutrient broth: 4.6 × 10^8
E. coli; Time 5 days
  Growth of E. coli in nutrient broth: 3.8 × 10^8
E. coli; [5]
  effect on the growth of E. coli: slightly reduced the maximum population
E. coli; sealed tubes, nutrient broth
  effect on the growth of E. coli: little effect
[1]
  oxygen utilization by one component alone: No oxygen utilization

## [Cl][Co][Cl] [Co^2+, cobalt chloride]
Pseudomonas fluorescens; Time 0 days
  Growth of Pseudomonas fluorescens in nutrient broth: 150
Pseudomonas fluorescens; Time 0.25 days
  Growth of Pseudomonas fluorescens in nutrient broth: 65
Pseudomonas fluorescens; Time 1 day
  Growth of Pseudomonas fluorescens in nutrient broth: 1.9 × 10^6
Pseudomonas fluorescens; Time 4 days
  Growth of Pseudomonas fluorescens in nutrient broth: 5.6 × 10^8
Pseudomonas fluorescens; Time 6 days
  Growth of Pseudomonas fluorescens in nutrient broth: 5.5 × 10^7
Pseudomonas fluorescens
  effect on the growth of Pseudomonas fluorescens: slowed the growth
E. coli; Time 0 days
  Growth of E. coli in nutrient broth: 430
E. coli; Time 0.25 days
  Growth of E. coli in nutrient broth: 690
E. coli; Time 1 day
  Growth of E. coli in nutrient broth: 8.1 × 10^5
E. coli; Time 2 days
  Growth of E. coli in nutrient broth: 2.2 × 10^6
E. coli; Time 5 days
  Growth of E. coli in nutrient broth: 4.5 × 10^8
E. coli; sealed tubes, nutrient broth
  effect on the growth of E. coli: Growth was slowed but not stopped

## O=C(O)CN(CCN(CC(=O)O)CC(=O)O)CC(=O)O [EDTA]
[1]; pH 7.4, 25° C.
  effect of chelating agent on oxygen removal by Oxysorb: almost completely inhibited

## [Cl][Fe]([Cl])[Cl] [Fe^3+, ferric chloride]
Pseudomonas fluorescens; Time 0 days
  Growth of Pseudomonas fluorescens in nutrient broth: 130
Pseudomonas fluorescens; Time 0.25 days
  Growth of Pseudomonas fluorescens in nutrient broth: 160
Pseudomonas fluorescens; Time 1 day
  Growth of Pseudomonas fluorescens in nutrient broth: 6.2 × 10^7
Pseudomonas fluorescens; Time 4 days
  Growth of Pseudomonas fluorescens in nutrient broth: 8.1 × 10^7
Pseudomonas fluorescens; Time 6 days
  Growth of Pseudomonas fluorescens in nutrient broth: 5.1 × 10^7
Pseudomonas fluorescens
  effect on the growth of Pseudomonas fluorescens: did not differ from the control
E. coli; Time 0 days
  Growth of E. coli in nutrient broth: 420
E. coli; Time 0.25 days
  Growth of E. coli in nutrient broth: 6400
E. coli; Time 1 day
  Growth of E. coli in nutrient broth: 2.1 × 10^8
E. coli; Time 2 days
  Growth of E. coli in nutrient broth: 3.4 × 10^8
E. coli; Time 5 days
  Growth of E. coli in nutrient broth: 1.5 × 10^8
E. coli; sealed tubes, nutrient broth
  effect on the growth of E. coli: no effect

## N[C@@H](Cc1c[nH]cn1)C(=O)O [Histidine, L-histidine]
[1]; pH 7.4, 25° C.
  effect of chelating agent on oxygen removal by Oxysorb: some inhibition

## O=P(O)(O)O[C@H]1[C@H](OP(=O)(O)O)[C@@H](OP(=O)(O)O)[C@H](OP(=O)(O)O)[C@@H](OP(=O)(O)O)[C@H]1OP(=O)(O)O [Phytic acid, phytic acid]
[1]; pH 7.4, 25° C.
  effect of chelating agent on oxygen removal by Oxysorb: slightly slower than the control

## O=C1O[C@H]([C@@H](O)CO)C(O)=C1O [ascorbic acid]
[1]; pH 7.4, 25° C.
  reducing agent in copper-mediated oxygen removal: most efficient reducing agent

## O=S(=O)([O-])[O-].[Cu+2] [copper sulfate]
[1]
  oxygen utilization by one component alone: No oxygen utilization

## N[C@@H](CS)C(=O)O [cysteine]
[1]; pH 7.4, 25° C.
  reducing agent in copper-mediated oxygen removal: more reactive than sulfite

## NCC(=O)O [glycine]
[1]; pH 7.4, 25° C.
  effect of chelating agent on oxygen removal by Oxysorb: faster than that of the control
[1]
  effect of protein on the rate of oxygen removal by Oxysorb: diminished this protein effect

## CC(O)CO (centres unmarked) [propylene glycol]
[1]; 50 micromolar copper sulfate, 1 mM sodium ascorbate, pH 7.4, 25° C.
  effect of freezing point depressant on the rate of oxygen removal: not affected significantly

## O=S([O-])O.[Na+] [sodium bisulfite]
[2]
  effect on chemical and microbiological events in potatoes stored in water: no effect at all
[3]
  browning of pureed potato: this browning does not occur

## O=S([O-])[O-].[Na+].[Na+] [sulfite, sodium sulfite]
[1]; pH 7.4, 25° C.
  reducing agent in copper-mediated oxygen removal: more reactive than catechol

## catalase
[4]
  effect on oxidation of ascorbic acid in the presence of Cu^2+: inhibition

## copper gluconate [Cu^2+]
Pseudomonas fluorescens; Time 0 days
  Growth of Pseudomonas fluorescens in nutrient broth: 140
Pseudomonas fluorescens; Time 0.25 days
  Growth of Pseudomonas fluorescens in nutrient broth: 180
Pseudomonas fluorescens; Time 1 day
  Growth of Pseudomonas fluorescens in nutrient broth: 9.6 × 10^7
Pseudomonas fluorescens; Time 6 days
  Growth of Pseudomonas fluorescens in nutrient broth: 1.6 × 10^8
E. coli; Time 0 days
  Growth of E. coli in nutrient broth: 510
E. coli; Time 0.25 days
  Growth of E. coli in nutrient broth: 3100
E. coli; Time 1 day
  Growth of E. coli in nutrient broth: 4.7 × 10^7
E. coli; Time 2 days
  Growth of E. coli in nutrient broth: 4.8 × 10^7
E. coli; Time 5 days
  Growth of E. coli in nutrient broth: 7.3 × 10^6
E. coli; [5]
  effect on the growth of E. coli: further suppressed growth
E. coli; sealed tubes, nutrient broth
  effect on the growth of E. coli: reduced both the growth rate and the maximum population
yeast
  effect on yeast growth: no toxicity
[1]; 100 micromolar metal, 10 mM ascorbic acid, 50 mM Tris pH 7.4
  transition metal as catalyst of oxygen removal: best catalyst

## superoxide dismutase
[4]
  effect on oxidation of ascorbic acid in the presence of Cu^2+: substantial acceleration

B1: ovalbumin: protein added to the Oxysorb system; binds copper with high affinity (protein, UniProt P01012 2-386, looked up)
Ovalbumin: GSIGAASMEFCFDVFKELKVHHANENIFYCPIAIMSALAMVYLGAKDSTRTQINKVVRFDKLPGFGDSIEAQCGTSVNVHSSLRDILNQITKPNDVYSFSLASRLYAEERYPILPEYLQCVKELYRGGLEPINFQTAADQARELINSWVESQTNGIIRNVLQPSSVDSQTAMVLVNAIVFKGLWEKAFKDEDTQAMPFRVTEQESKPVQMMYQIGLFRVASMASEKMKILELPFASGTMSMLVLLPDEVSGLEQLESIINFEKLTEWTSSNVMEERKIKVYLPRMKMEEKYNLTSVLMAMGITDVFSSSANLSGISSAESLKISQAVHAAHAEINEAGREVVGSAEAGVDAASVSEEFRADHPFLFCIKHIATNAVLFFGRCVSP
[1]
  effect of protein on the rate of oxygen removal by Oxysorb: greatly decreases the rate of oxygen removal
